The source of these data is publication PMC5802278, “Molecular and cellular mechanisms of HIF prolyl hydroxylase inhibitors in clinical trials” (Chemical Science, 2017).

One assay addresses PHD2 (Homo sapiens, UniProt Q9GZT9). Kind of assay: LC-MS based RapidFire PHD2 hydroxylation assay. The format is biochemical. The following applies: 150 nM isolated recombinant human PHD2, LC-MS based RapidFire assay.
Another assay concerns the target T1, OGFOD1 (Homo sapiens, UniProt Q8N543).
T1 construct: made in house
T1 sequence (Q8N543 1-542): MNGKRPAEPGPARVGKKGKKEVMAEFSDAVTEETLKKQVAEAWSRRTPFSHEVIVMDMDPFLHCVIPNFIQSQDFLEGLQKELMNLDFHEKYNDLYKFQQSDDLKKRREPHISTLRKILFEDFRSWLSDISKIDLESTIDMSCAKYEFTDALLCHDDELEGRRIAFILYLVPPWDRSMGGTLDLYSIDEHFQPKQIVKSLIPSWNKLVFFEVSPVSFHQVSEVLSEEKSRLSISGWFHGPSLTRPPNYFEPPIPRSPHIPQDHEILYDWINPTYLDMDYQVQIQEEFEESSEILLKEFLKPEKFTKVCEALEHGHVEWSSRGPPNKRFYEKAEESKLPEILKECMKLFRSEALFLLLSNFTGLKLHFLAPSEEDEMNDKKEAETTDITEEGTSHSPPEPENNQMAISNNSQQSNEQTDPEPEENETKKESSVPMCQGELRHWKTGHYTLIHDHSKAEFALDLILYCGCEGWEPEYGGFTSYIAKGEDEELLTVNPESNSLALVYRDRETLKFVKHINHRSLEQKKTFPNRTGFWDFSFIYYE
Kind of assay: MALDI-TOF MS OGFOD1 hydroxylation assay. It is filed as biochemical. How it is done: MALDI-TOF MS OGFOD1 hydroxylation assays
Recombinant human OGFOD1 was prepared as reported,11 and stored at -80 °C in 50 mM HEPES (pH 7.5), 150 mM NaCl, 1 mM DTT and 5% (w/v) glycerol after purification with immobilized metal affinity chromatography. Activity assays were performed by determining the extent of hydroxylation of a 20-residue fragment of human RPS23 containing amino acid […]
residues 51-70 (H2N-[…]-CONH2) by matrix-assisted laser desorption/ionisation time-of-flight mass spectrometry (MALDI-TOF MS) using a Waters® Micromass® MALDI micro MX™ mass spectrometer and MassLynx™ 4.1 as described 12.
The optimised hydroxylation assay involved incubation of OGFOD1 (1 μM) with inhibitor (1 % v/v in DMSO) in the presence of Fe(II) (50 μM), 2OG (25 μM), L-ascorbic acid (100 μM) and RPS2351-70 (25 μM) in HEPES (50 mM, pH 7.5) at 37 °C for 15 min. Reagent solution were made as previously reported. (64) Reactions were quenched with formic acid (1 % v/v).
Samples were prepared by mixing reaction mixture (1 μL) with α-cyano-4-hydrocinnamic acid (CHCA) solution (water:acetonitrile 1:1) (1 μL). Dose-response was assessed in 8-point triplicates. Data were analysed using GraphPad Prism 5.04. […]
Fig. S12. In vitro OGFOD1 selectivity profiling of PHD inhibitors. Inhibition of PHD inhibitors against human OGFOD1 as assayed by MALDI11,13 -TOF MS (the protocol is described in the Supplemental Materials and Methods section). No enzyme and DMSO controls were used for the normalisation of RPS23 peptide hydroxylation. Eight concentrations were used to obtained dose-response curve for each compound. Data points presented in the graph are means with standard deviation, n=3. IC50 values (listed in Table 2) were calculated using GraphPad […]
(1 picture or pasted object on this page, not shown here)

Another assay deals with JMJD3 (KDM6B) (Homo sapiens, UniProt O15054). Kind of assay: AlphaScreen histone demethylase assay. It is filed as biochemical. The source says: Protocols for in vitro PHD1–3 MALDI-TOF MS hydroxylation assays[30] and for the AlphaScreen histone demethylase assays[44] were as reported.
In general terms: In Alpha technology, singlet oxygen from a donor bead excites a nearby acceptor bead.

Another assay deals with JARID1D (KDM5D) (Homo sapiens, UniProt Q9BY66). Kind of assay: AlphaScreen histone demethylase assay. It is filed as biochemical.
Assay [1] deals with HIF-1α Pro402 (NODD), Pro564 (CODD) and Asn803 hydroxylation in RCC4 cells. Kind of assay: Immunoblotting of HIF-1α hydroxylation in VHL-deficient RCC4 cells. It is filed as cell-based, human. The following applies: 6 hours; for inhibition of HIF-1α NODD and CODD hydroxylation: titration; for comparison of inhibition of NODD and CODD hydroxylation: RCC4 cells, 10, 50 and 100 μM. The method, then:
To test whether the cellular HIF-α induction occurs via inhibition of HIF-α hydroxylation, we utilized a Von Hippel–Lindau (VHL)-deficient renal cell carcinoma cell line RCC4, in which HIF-α is constitutively stabilized in normoxia due to loss of functional VHL.[77] We used antibodies specific for hydroxylation at the N-terminal and C-terminal oxygen-dependent degradation domains, Pro402 (NODD) and Pro564 (CODD) at HIF-1α.[78] HIF-1α hydroxylation status was analyzed after 6 hours treatment. […]. page 15: […]
Cell Culture and Immunoblotting
HeLa and RCC4 cells were cultured in Dulbecco’s Modified Eagle’s Medium (DMEM; Sigma Aldrich D6546-500ML) supplemented with 10% fetal bovine serum (Sigma Aldrich F7524-500ML), 4 mM L-glutamine (Sigma Aldrich G7513- 100ML), 50 U/mL penicillin, and 50 μg/mL streptomycin (Sigma Aldrich P0781-100ML). Cells were seeded to reach 90-100% confluency prior to compound treatment. Cells were exposed to the inhibitor at a final concentration of 1% DMSO for 5-6 hours. For Fe(II) titration in the presence of inhibitors, ferric ammonium citrate was added to the cells for further 16 hours after 6 hours of incubation […]
Cells were harvested in urea/SDS buffer (6.7 M urea, 10 mM Tris-Cl pH 6.8, 10% glycerol, and1% SDS) supplemented with 1mM dithiothreitol following a phosphate-buffered saline (PBS) rinse. Cell extracts were analyzed with SDS-PAGE, electroblotted to polyvinylidene difluoride (PVDF) membrane (Millipore) and probed with the corresponding primary antibody for 1 hour at room temperature or overnight at 4 °C. The secondary antibody specific to primary antibody species conjugated with HRP were applied at room temperature for 1 hour.
The antibodies used for immonoblotting were as follows: pan-anti-HIF-1α (clone 54, BD Transduction Laboratories™), anti-HIF-1α Hyp402 (catalogue number 07-1585, Merck Millipore), anti-HIF-1α Hyp564 (D43B5, Cell Signaling), anti-HIF-1α HyN803 (a generous gift from Lee et al.15), PHD216, PHD316, and HRP-conjugated anti-β-actin (clone AC15, Abcam). Details of antibodies used are given in Tian et al.17 Detection of signal was achieved using SuperSignal™ West Dura Extended Duration Substrate kTM it (Thermo Scientific 34075, unless otherwise stated) either with film or ChemiDoc MP (BIO-RAD) imaging system. TM Quantification of the immunobloting signal was performed with Image Lab software from […]
Background: Immunoblotting shows a protein as a band on a membrane.

Setting [2] is: isolated recombinant enzyme, 1 μM, read-out: IC50 OGFOD1.

Where two headings read alike, the source gives them in different places.

Sequence of JMJD3 (KDM6B) (O15054 whole entry): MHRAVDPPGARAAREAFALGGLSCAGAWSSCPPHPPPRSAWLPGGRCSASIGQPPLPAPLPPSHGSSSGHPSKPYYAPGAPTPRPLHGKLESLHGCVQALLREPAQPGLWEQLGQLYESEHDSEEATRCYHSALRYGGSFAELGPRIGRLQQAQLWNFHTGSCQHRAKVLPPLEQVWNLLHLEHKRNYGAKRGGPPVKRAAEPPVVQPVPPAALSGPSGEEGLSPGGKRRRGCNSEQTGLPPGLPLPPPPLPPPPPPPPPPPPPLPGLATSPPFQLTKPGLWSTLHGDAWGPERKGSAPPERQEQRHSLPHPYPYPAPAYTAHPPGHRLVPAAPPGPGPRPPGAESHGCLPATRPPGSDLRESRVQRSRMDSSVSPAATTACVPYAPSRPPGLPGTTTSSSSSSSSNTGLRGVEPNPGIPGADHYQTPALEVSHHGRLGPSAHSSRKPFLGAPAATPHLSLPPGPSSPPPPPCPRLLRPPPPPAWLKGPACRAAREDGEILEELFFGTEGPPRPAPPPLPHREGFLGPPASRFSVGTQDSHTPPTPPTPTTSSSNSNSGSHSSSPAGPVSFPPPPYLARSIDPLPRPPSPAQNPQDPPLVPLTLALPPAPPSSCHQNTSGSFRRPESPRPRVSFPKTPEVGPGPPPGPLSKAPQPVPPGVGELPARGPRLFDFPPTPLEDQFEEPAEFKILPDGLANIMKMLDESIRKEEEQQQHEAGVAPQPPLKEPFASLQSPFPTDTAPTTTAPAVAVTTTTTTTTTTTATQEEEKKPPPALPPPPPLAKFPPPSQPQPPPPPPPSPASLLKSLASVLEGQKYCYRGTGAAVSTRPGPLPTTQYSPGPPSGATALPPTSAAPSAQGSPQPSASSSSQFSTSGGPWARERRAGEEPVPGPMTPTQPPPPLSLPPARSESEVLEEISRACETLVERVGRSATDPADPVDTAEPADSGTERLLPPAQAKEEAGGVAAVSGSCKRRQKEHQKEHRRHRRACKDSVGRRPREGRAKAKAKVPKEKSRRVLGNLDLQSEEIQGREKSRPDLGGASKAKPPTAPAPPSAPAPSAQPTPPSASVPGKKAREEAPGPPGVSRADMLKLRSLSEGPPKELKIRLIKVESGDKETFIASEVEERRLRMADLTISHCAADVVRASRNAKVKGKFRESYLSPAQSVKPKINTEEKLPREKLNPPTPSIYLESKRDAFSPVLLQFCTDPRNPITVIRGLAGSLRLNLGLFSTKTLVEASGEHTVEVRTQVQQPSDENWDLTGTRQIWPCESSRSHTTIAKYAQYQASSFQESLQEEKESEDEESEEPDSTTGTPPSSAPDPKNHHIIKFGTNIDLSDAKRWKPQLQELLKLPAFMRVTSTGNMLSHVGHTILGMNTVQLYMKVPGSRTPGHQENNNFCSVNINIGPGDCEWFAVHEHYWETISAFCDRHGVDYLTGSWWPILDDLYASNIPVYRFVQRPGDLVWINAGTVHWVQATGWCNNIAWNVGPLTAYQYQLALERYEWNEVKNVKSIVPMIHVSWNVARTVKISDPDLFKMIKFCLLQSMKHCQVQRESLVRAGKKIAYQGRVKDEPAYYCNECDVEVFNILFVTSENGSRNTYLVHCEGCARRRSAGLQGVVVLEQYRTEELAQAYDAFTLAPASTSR
Sequence of JARID1D (KDM5D) (Q9BY66 whole entry): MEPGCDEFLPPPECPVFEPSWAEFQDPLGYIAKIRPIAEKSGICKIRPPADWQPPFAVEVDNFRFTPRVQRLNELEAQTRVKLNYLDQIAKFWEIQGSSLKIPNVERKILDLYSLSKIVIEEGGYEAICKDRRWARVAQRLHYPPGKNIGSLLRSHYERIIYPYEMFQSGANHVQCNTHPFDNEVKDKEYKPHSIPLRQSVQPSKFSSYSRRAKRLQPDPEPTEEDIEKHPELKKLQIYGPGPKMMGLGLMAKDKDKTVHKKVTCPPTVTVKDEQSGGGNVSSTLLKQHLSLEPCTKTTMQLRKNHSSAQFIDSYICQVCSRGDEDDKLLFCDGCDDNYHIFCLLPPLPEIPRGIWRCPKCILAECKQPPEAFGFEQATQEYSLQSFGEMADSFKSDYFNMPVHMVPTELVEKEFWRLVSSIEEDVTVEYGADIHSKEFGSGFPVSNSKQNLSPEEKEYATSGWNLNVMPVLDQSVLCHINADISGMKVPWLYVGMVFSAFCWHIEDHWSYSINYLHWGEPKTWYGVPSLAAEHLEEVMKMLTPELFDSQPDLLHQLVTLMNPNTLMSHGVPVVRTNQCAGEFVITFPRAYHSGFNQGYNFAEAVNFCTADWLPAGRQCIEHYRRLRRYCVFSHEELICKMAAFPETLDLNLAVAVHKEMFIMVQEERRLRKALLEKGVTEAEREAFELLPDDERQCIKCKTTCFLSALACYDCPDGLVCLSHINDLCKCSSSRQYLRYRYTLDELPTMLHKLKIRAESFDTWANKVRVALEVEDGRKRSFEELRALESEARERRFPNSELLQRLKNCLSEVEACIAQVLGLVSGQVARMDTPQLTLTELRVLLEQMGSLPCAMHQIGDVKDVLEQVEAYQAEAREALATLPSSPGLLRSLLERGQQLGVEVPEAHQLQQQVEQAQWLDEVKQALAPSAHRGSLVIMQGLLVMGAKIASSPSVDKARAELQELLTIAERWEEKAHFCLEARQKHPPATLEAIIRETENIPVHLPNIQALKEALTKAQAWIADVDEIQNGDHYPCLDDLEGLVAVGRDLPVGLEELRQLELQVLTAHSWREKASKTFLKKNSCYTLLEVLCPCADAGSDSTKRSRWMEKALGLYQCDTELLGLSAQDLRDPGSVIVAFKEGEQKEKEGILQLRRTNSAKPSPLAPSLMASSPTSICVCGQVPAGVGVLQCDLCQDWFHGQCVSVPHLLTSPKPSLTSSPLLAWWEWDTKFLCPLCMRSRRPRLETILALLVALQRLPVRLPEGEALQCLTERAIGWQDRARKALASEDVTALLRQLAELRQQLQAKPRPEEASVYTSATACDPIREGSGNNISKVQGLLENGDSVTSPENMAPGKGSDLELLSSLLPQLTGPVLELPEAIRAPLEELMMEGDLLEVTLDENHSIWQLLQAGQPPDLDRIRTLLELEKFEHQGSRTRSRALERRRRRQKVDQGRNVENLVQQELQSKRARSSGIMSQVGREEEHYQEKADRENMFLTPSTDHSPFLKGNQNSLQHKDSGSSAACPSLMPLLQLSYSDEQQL
Sequence of PHD2 (Q9GZT9 whole entry): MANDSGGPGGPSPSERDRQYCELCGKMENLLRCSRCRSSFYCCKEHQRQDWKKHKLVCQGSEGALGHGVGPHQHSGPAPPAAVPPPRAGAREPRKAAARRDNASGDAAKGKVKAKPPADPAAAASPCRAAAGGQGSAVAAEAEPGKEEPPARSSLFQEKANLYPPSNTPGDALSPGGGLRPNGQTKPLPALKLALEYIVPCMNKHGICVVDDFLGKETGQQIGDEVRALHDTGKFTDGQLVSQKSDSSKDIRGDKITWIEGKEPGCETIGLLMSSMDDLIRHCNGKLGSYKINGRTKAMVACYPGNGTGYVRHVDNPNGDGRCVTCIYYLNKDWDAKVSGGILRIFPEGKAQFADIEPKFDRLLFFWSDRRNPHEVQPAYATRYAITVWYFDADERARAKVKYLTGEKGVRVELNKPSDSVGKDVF
Description for PHD2: LC-MS PHD2 hydroxylation assays
The PHD2 RF-MS RapidFire liquid chromatography mass spectrometry (RF-MS) assay monitors turnover of a C-terminal oxygenase dependent domain (CODD) peptide substrate
(Pro564) in an endpoint type assay format (typical enzyme incubation time of 15 minutes).
Tris(hydroxymethyl)aminomethane was from Fisher. Ferrous ammonium sulfate (FAS), 2-oxoglutarate (2OG) and L-ascorbic acid were from Sigma Aldrich; solutions of these were prepared freshly each day. All inhibition assays were carried out in 384-well polypropylene plates (Greiner Bio-One). PHD2 assays were performed in assay buffer (50 mM Tris.Cl pH
well polypropylene assay plates. The final assay concentration of DMSO was kept constant at 0.5%. PHD2 protein was prepared at a concentration of 300 nM in assay buffer and 25 μl dispensed across each 384-well assay plate. […]
water containing 0.1% formic acid onto the mass spectrometer. Peptide charge states were monitored in positive mode. Ion chromatogram data were extracted for the +2 charge state and peak area data integrated using RapidFire Integrator software (Agilent). % conversion of the CODD peptide substrate to the +16 hydroxylated peptide was calculated using the equation: % conversion = 100 x hydroxylated / (hydroxylated + non-hydroxylated peptide). IC50 values were determined from non-linear regression plots using GraphPad prism.

Broadly, the IC50 is the concentration needed to halve the response being measured. For the compound `CC(C)(C)OC(=O)c1ccc(-n2[nH]cc(-n3ccnn3)c2=O)nc1` [IOX4], the IC50 was 0.54 µM on PHD2, under 1 µM at OGFOD1 (setting [2]), under 1 µM at JMJD3 (KDM6B) (read-out: IC50 JMJD3 (KDM6B)) and 91 µM at JARID1D (KDM5D) (read-out: IC50 JARID1D (KDM5D)). Also, the “inhibition of HIF-1α NODD and CODD hydroxylation” value in assay [1] (RCC4 cells) was “inhibited both NODD and CODD hydroxylation in a dose dependent manner”.

Take `O=C(O)CNC(=O)c1ncc(-c2cccc(Cl)c2)cc1O` [Vadadustat]: the concentration for half-maximal inhibition (IC50) was 1.4 µM at OGFOD1 (setting [2]), 37 µM on JMJD3 (KDM6B) (read-out: IC50 JMJD3 (KDM6B)) and over 100 µM on JARID1D (KDM5D) (read-out: IC50 JARID1D (KDM5D)). Besides, the “inhibition of NODD hydroxylation” value in assay [1] (RCC4 cells, 50 μM) is “no sign of PHD inhibition”; in assay [1] (RCC4 cells, 100 μM), “only slight inhibition”. Also, the “inhibition of CODD hydroxylation” value in assay [1] (RCC4 cells, up to 100 μM) was “no clear inhibition”. In assay [1] (RCC4 cells, up to 200 μM), the “inhibition of hydroxylation of Asn803” value was “not observed”.

Turning to `O=C(O)CNC(=O)C1C(=O)N(C2CCCCC2)C(=O)N(C2CCCCC2)C1=O` [GSK1278863], the IC50 at OGFOD1 is 2.1 µM; against JMJD3 (KDM6B), over 100 µM; on JARID1D (KDM5D), over 100 µM. Besides, the “comparison of inhibition of NODD and CODD hydroxylation” value in assay [1] is recorded as “better inhibits NODD than CODD hydroxylation”. In addition, in assay [1] (RCC4 cells), the “inhibition of HIF-1α NODD and CODD hydroxylation” value was “inhibited both NODD and CODD hydroxylation in a dose dependent manner”. The “inhibition of HIF-1α Asn803 hydroxylation” value in assay [1] (RCC4 cells, up to 100 μM) is “no sign of HIF-1α Asn803 hydroxylation inhibition”.

On to `Cc1nc(C(=O)NCC(=O)O)c(O)c2ccc(Oc3ccccc3)cc12` [FG-4592], for which the IC50 on OGFOD1 (setting [2]) was under 1 µM; at JMJD3 (KDM6B) (read-out: IC50 JMJD3 (KDM6B)), over 100 µM; on JARID1D (KDM5D) (read-out: IC50 JARID1D (KDM5D)), over 100 µM. Besides, the “comparison of inhibition of NODD and CODD hydroxylation” value in assay [1] was “greatest inhibition of CODD hydroxylation among the inhibitors”. The “inhibition of CODD hydroxylation” value in assay [1] (RCC4 cells, 50 μM) is on record as “clear inhibition”. Also, the “inhibition of NODD hydroxylation” value in assay [1] (RCC4 cells, 50 μM) is reported as “significantly inhibited”. The “inhibition of HIF-1α NODD and CODD hydroxylation” value in assay [1] (RCC4 cells) was “inhibited both NODD and CODD hydroxylation in a dose dependent manner”. In addition, the “inhibition of HIF-1α Asn803 hydroxylation” value in assay [1] (RCC4 cells, up to 100 μM) was “no sign of HIF-1α Asn803 hydroxylation inhibition”.

`O=c1c(-n2ccnn2)c[nH]n1-c1cc(N2CCOCC2)ncn1` [Molidustat]: the IC50 was 1.32 µM on PHD2, 5.1 µM at OGFOD1 (setting [2]), 35 µM on JMJD3 (KDM6B) (read-out: IC50 JMJD3 (KDM6B)) and over 100 µM on JARID1D (KDM5D) (read-out: IC50 JARID1D (KDM5D)). In addition, in assay [1], the “comparison of inhibition of NODD and CODD hydroxylation” value was “weaker inhibition of both hydroxylation sites compared to FG-4592 and GSK1278863 at 10 μM”. The “inhibition of HIF-1α NODD and CODD hydroxylation” value in assay [1] (RCC4 cells) was “inhibited both NODD and CODD hydroxylation in a dose dependent manner”. Also, in assay [1] (RCC4 cells, up to 100 μM), the “inhibition of HIF-1α Asn803 hydroxylation” value is “no sign of HIF-1α Asn803 hydroxylation inhibition”.
